Assays:
[1] = biological target: T1, FBXL10 (Homo sapiens, UniProt Q8NHM5); experiment: FBXL10 in vitro enzyme inhibition assay (AlphaScreen); assay type: biochemical; settings: Table 5
T1 construct: purchased BPS Bioscience 50120
T1 sequence (Q8NHM5 1-650): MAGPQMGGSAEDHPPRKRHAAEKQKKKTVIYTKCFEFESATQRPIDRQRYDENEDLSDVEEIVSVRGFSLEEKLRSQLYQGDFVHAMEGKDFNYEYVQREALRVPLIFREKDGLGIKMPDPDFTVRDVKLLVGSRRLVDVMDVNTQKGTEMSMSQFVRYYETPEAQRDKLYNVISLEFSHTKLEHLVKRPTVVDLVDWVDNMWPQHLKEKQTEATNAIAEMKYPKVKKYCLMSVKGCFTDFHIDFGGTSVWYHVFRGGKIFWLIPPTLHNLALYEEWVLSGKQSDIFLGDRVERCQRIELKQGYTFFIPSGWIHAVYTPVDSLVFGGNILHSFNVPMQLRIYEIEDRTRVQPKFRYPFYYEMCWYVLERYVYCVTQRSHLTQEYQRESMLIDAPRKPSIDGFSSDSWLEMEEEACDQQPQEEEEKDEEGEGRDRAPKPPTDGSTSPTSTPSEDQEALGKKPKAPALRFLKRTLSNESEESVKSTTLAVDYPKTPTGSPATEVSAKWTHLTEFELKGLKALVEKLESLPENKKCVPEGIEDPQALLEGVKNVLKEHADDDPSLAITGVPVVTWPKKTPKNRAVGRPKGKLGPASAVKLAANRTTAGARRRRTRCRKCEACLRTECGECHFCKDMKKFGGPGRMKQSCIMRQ
How it was run: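 Reactions ran 1 h at room temperature with 0.3 nM FBXL10 (aa 1-650, baculovirus). Substrates were 30 nM biotin-H3K36me2 peptide and 0.2 µM α-ketoglutarate in pH 7.3 HEPES buffer containing Fe(II) and ascorbate.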

[2] = biological target: T2, JMJD3 (Homo sapiens, UniProt O15054); experiment: JMJD3 in vitro enzyme inhibition assay (AlphaScreen); assay type: biochemical; settings: Table 5; 1 nM JMJD3, H3K27me3-biotin labeled peptide
T2 construct: purchased BPS Bioscience 50115
Description: This assay determines the ability of a test compound to inhibit Jarid1B, JMJD2C and JMJD3 demethylase activity. Baculovirus expressed Jarid1B (GenBank Accession #NM-006618, AA 2-751) was purchased from BPS Bioscience (Cat #50121) or custom made by MolecularThroughput. Baculovirus expressed JMJD2C (GenBank Accession #BC143571, AA 2-372) was purchased from BPS Bioscience (Cat#50105). Baculovirus expressed JMJD3 (GenBank Accession #NM-001080424, AA1043-end) was purchased from BPS Bioscience (Cat#50115).
The ability of test compounds to inhibit the activity of JMJD3 was determined in 384-well plate format under the following reaction conditions: 1 nM JMJD3, 250 nM H3K27me3-biotin labeled peptide (Anaspec cat # 64367), 1 µM alpha-ketoglutaric acid in assay buffer of 50 mM HEPES, pH7.3, 0.005% Brij35, 0.5 mM TCEP, 0.2 mg/ml BSA, 50 µM sodium L-ascorbate, 5 µM ammonium iron(II) sulfate. Reaction product is determined quantitatively by AlphaScreen detection after the addition of detection reagents anti-H3K27me1 antibody, 5 µg/ml AlphaScreen® Streptavidin-coated Donor beads, and 5 µg/ml AlphaScreen® Protein A Acceptor beads in 50 mM HEPES, pH7.3, 10 mM NaCl, 0.005% Brij35, 10 mM EDTA, 2 mg/ml BSA.
The assay reaction was initiated by the following: 3 µl of the mixture of 750 nM H3K27me3-biotin labeled peptide and 3 µM alpha-ketoglutaric acid with 3 µl of 11-point serial diluted inhibitor in 3% DMSO are added to each well of 384 well Proxiplate (Perkin Elmer), followed by the addition of 3 µl of 3 nM JMJD3 to initiate the reaction. The reaction mixture is incubated at room temperature for 20 minutes, and terminated by the addition of 3 µl of appropriate dilution of anti H3K27me1 antibody in 50 mM HEPES, pH7.3, 10 mM NaCl, 0.005% Brij35, 10 mM EDTA, 2 mg/ml BSA. Plates will then incubated at room temperature for 1 hour, followed by addition of 3 µl of 25 µg/ml AlphaScreen® Streptavidin-coated Donor beads and AlphaScreen® Protein A Acceptor beads in 50 mM HEPES, pH7.3, 10 mM NaCl, 0.005% Brij35, 10 mM EDTA, 2 mg/ml BSA. Plates will then be read by EnVision Multilabel Reader in AlphaScreen mode after minimum 2 hour incubation at room temperature. The AlphaScreen signal for each well is used to determine inhibition constant (IC50).

T2 sequence (O15054 1043-1682 isoform O15054-1): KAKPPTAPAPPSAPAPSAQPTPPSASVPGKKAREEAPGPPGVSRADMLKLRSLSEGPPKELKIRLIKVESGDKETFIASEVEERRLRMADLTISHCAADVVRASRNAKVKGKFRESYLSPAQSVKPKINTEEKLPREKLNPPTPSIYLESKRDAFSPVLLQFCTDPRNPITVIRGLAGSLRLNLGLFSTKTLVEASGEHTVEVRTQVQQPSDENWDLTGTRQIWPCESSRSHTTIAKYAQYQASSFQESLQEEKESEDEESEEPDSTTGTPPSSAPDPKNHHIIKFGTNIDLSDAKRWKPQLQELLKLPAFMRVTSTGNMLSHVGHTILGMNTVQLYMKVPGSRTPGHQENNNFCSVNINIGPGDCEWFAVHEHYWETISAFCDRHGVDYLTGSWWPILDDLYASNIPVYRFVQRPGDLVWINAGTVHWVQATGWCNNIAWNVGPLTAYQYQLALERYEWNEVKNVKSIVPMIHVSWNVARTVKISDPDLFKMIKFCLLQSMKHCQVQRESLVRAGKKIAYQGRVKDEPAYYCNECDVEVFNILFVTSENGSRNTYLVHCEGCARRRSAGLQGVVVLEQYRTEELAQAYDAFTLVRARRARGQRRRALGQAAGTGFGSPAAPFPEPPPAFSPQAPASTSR

SMILES | IC50 [1] [nM] | IC50 [2] [nM]
FC(F)(F)c1[nH]nnc1-c1ccnc(-c2cn(CCc3ccccc3Cl)cn2)c1 [Example 57] | ≤ 100 | > 10000
CC(C)C(c1ccccc1)n1cnc(-c2cc(-c3nn[nH]c3C(F)(F)F)ccn2)c1 (stereo not drawn) [Example 75, 2-[1-(2-methyl-1-phenylpropyl)-1H-imidazol-4-yl]-4-[5-(trifluoromethyl)-1H-1,2,3-triazol-4-yl]pyridine] | 100 to 1000 | > 10000
CCC(c1ccccc1)n1cnc(-c2cc(-c3nn[nH]c3C(F)(F)F)ccn2)c1 (stereo not drawn) [Example 74, 2-[1-(1-phenylpropyl)-1H-imidazol-4-yl]-4-[5-(trifluoromethyl)-1H-1,2,3-triazol-4-yl]pyridine] | ≤ 100 | > 10000
Fc1ccc(CCn2cnc(-c3cc(-c4nn[nH]c4C(F)(F)F)ccn3)c2)c(F)c1 [Example 86, 2-{1-[2-(2,4-difluorophenyl)ethyl]-1H-imidazol-4-yl}-4-[5-(trifluoromethyl)-1H-1,2,3-triazol-4-yl]pyridine] | ≤ 100 | > 10000
COc1ccc2c(c1)C(Cn1cnc(-c3cc(-c4nn[nH]c4C(F)(F)F)ccn3)c1)CCC2 (stereo not drawn) [Example 106, 2-{1-[(7-methoxy-1,2,3,4-tetrahydronaphthalen-1-yl)methyl]-1H-imidazol-4-yl}-4-[5-(trifluoromethyl)-1H-1,2,3-triazol-4-yl]pyridine] | 100 to 1000 | > 10000
Cc1ccc2c(c1)CCCC2Cn1cnc(-c2cc(-c3nn[nH]c3C(F)(F)F)ccn2)c1 (stereo not drawn) [Example 102, 2-{1-[(6-methyl-1,2,3,4-tetrahydronaphthalen-1-yl)methyl]-1H-imidazol-4-yl}-4-[5-(trifluoromethyl)-1H-1,2,3-triazol-4-yl]pyridine] | 1000 to 10000 | > 10000
Fc1cccc(CCn2cnc(-c3cc(-c4nn[nH]c4C(F)(F)F)ccn3)c2)c1F [Example 79, 2-{1-[2-(2,3-difluorophenyl)ethyl]-1H-imidazol-4-yl}-4-[5-(trifluoromethyl)-1H-1,2,3-triazol-4-yl]pyridine] | ≤ 100 | > 10000
Cc1ccccc1Cn1cnc(-c2cc(-c3nn[nH]c3C(F)(F)F)ccn2)c1 [Example 66, 2-{1-[(2-methylphenyl)methyl]-1H-imidazol-4-yl}-4-[5-(trifluoromethyl)-1H-1,2,3-triazol-4-yl]pyridine] | ≤ 100 | > 10000
Fc1cccc2c1CCCC2Cn1cnc(-c2cc(-c3nn[nH]c3C(F)(F)F)ccn2)c1 (stereo not drawn) [Example 99, 2-{1-[(5-fluoro-1,2,3,4-tetrahydronaphthalen-1-yl)methyl]-1H-imidazol-4-yl}-4-[5-(trifluoromethyl)-1H-1,2,3-triazol-4-yl]pyridine] | 100 to 1000 | > 10000
Fc1ccc(F)c(CCn2cnc(-c3cc(-c4nn[nH]c4C(F)(F)F)ccn3)c2)c1 [Example 88, 2-{1-[2-(2,5-difluorophenyl)ethyl]-1H-imidazol-4-yl}-4-[5-(trifluoromethyl)-1H-1,2,3-triazol-4-yl]pyridine] | ≤ 100 | > 10000
Fc1ccc(CCn2cnc(-c3cc(-c4nn[nH]c4C(F)(F)F)ccn3)c2)cc1 [Example 77] | ≤ 100 | 1000 to 10000
Fc1ccc(Cn2cnc(-c3cc(-c4nn[nH]c4C(F)(F)F)ccn3)c2)c(F)c1 [Example 68, 2-{1-[(2,4-difluorophenyl)methyl]-1H-imidazol-4-yl}-4-[5-(trifluoromethyl)-1H-1,2,3-triazol-4-yl]pyridine] | ≤ 100 | > 10000
Cc1ccc(Cn2cnc(-c3cc(-c4nn[nH]c4C(F)(F)F)ccn3)c2)c(F)c1 [Example 71, 2-{1-[(2-fluoro-4-methylphenyl)methyl]-1H-imidazol-4-yl}-4-[5-(trifluoromethyl)-1H-1,2,3-triazol-4-yl]pyridine] | ≤ 100 | > 10000
Cn1cnc(-c2cc(-c3nn[nH]c3C(F)(F)F)ccn2)c1-c1ccc(F)cc1 [Example 97, 2-[5-(4-fluorophenyl)-1-methyl-1H-imidazol-4-yl]-4-[5-(trifluoromethyl)-1H-1,2,3-triazol-4-yl]pyridine] | ≤ 100 | > 10000
Fc1ccc2c(c1)C(Cn1cnc(-c3cc(-c4nn[nH]c4C(F)(F)F)ccn3)c1)CCC2 (stereo not drawn) [Example 101, 2-{1-[(7-fluoro-1,2,3,4-tetrahydronaphthalen-1-yl)methyl]-1H-imidazol-4-yl}-4-[5-(trifluoromethyl)-1H-1,2,3-triazol-4-yl]pyridine] | 100 to 1000 | > 10000
COc1cccc2c1C(Cn1cnc(-c3cc(-c4nn[nH]c4C(F)(F)F)ccn3)c1)CCC2 (stereo not drawn) [Example 107, 2-{1-[(8-methoxy-1,2,3,4-tetrahydronaphthalen-1-yl)methyl]-1H-imidazol-4-yl}-4-[5-(trifluoromethyl)-1H-1,2,3-triazol-4-yl]pyridine] | 100 to 1000 | > 10000
COc1ccc(CCn2cnc(-c3cc(-c4nn[nH]c4C(F)(F)F)ccn3)c2)cc1 [Example 93, 2-{1-[2-(4-methoxyphenyl)ethyl]-1H-imidazol-4-yl}-4-[5-(trifluoromethyl)-1H-1,2,3-triazol-4-yl]pyridine] | ≤ 100 | > 10000
Fc1cccc(Cl)c1CCn1cnc(-c2cc(-c3nn[nH]c3C(F)(F)F)ccn2)c1 [Example 80, 2-{1-[2-(2-chloro-6-fluorophenyl)ethyl]-1H-imidazol-4-yl}-4-[5-(trifluoromethyl)-1H-1,2,3-triazol-4-yl]pyridine] | 100 to 1000 | > 10000
Fc1ccc(Cn2cnc(-c3cc(-c4nn[nH]c4C(F)(F)F)ccn3)c2)cc1 [Example 61, 2-{1-[(4-fluorophenyl)methyl]-1H-imidazol-4-yl}-4-[5-(trifluoromethyl)-1H-1,2,3-triazol-4-yl]pyridine] | ≤ 100 | > 10000
Cc1ccc2c(c1)C(Cn1cnc(-c3cc(-c4nn[nH]c4C(F)(F)F)ccn3)c1)CCC2 (stereo not drawn) [Example 103, 2-{1-[(7-methyl-1,2,3,4-tetrahydronaphthalen-1-yl)methyl]-1H-imidazol-4-yl}-4-[5-(trifluoromethyl)-1H-1,2,3-triazol-4-yl]pyridine] | 100 to 1000 | > 10000
Cc1ccc(Cn2cnc(-c3cc(-c4nn[nH]c4C(F)(F)F)ccn3)c2)cc1 [Example 65, 2-{1-[(4-methylphenyl)methyl]-1H-imidazol-4-yl}-4-[5-(trifluoromethyl)-1H-1,2,3-triazol-4-yl]pyridine] | ≤ 100 | > 10000
